Laboratory results as given in ChEMBL document CHEMBL1143623, “Thyroid receptor ligands. 3. Design and synthesis of 3,5-dihalo-4-alkoxyphenylalkanoic acids as indirect antagonists of the thyroid hormone receptor” (J Med Chem, 2005).

Assays:
[1] = molecular target: T1, Thyroid hormone receptor beta (Homo sapiens, UniProt P10828); assay: Inhibitory activity against human TRAFbeta
T1 sequence (P10828 whole entry): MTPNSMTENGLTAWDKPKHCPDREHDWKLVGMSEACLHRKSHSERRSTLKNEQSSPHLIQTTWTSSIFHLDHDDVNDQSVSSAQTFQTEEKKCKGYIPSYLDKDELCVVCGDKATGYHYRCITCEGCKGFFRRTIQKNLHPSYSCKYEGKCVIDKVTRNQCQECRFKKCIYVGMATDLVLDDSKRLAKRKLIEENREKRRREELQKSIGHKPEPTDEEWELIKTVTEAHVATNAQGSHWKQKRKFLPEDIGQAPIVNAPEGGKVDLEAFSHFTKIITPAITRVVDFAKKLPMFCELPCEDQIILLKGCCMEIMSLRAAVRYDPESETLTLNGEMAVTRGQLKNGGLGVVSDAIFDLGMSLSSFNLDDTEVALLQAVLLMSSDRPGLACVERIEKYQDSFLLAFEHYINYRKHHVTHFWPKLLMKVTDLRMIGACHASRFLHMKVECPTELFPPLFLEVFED

[2] = molecular target: T2, Thyroid hormone receptor alpha (Homo sapiens, UniProt P10827); assay: Inhibitory activity against human TRAFalpha
T2 sequence (P10827 whole entry): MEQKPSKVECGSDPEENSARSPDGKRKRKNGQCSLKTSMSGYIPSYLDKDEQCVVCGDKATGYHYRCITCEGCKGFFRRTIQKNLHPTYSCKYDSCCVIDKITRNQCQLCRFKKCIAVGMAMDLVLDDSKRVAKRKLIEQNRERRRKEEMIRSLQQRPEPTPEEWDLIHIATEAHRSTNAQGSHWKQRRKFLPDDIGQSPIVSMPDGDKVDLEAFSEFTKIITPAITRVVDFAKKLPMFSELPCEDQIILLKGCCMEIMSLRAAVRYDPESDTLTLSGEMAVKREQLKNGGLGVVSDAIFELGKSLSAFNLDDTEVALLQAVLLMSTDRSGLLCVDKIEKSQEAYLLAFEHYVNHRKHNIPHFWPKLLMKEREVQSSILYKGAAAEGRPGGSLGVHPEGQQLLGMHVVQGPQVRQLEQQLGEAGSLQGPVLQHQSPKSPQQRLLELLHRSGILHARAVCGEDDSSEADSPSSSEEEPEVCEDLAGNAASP

[3] = molecular target: T1, Thyroid hormone receptor beta; assay: Inhibitory activity against human Thyroid hormone receptor beta
[4] = molecular target: T2, Thyroid hormone receptor alpha; assay: Inhibitory activity against human Thyroid hormone receptor alpha
[5] = molecular target: T3, Thyroid hormone receptor (Homo sapiens, UniProt P10827+P10828); assay: Binding affinity for human Thyroid hormone receptor; type: protein-complex assay
T3 sequence (P10827 whole entry): T2 sequence (P10827 whole entry)
T3 sequence (P10828 whole entry): T1 sequence (P10828 whole entry)

SMILES | IC50 [1] | IC50 [2] | IC50 [3] | IC50 [4] | Ki [5]
O=C(O)CCc1cc(Br)c(OCC2CCCCC2)c(Br)c1 | 120 nM | 530 nM | 190 nM | 460 nM | –
CCC(CC)COc1c(Br)cc(CCC(=O)O)cc1Br | – | – | 810 nM | 1600 nM | –
CCCCCCOc1c(Br)cc(CCC(=O)O)cc1Br | 1000 nM | 600 nM | 360 nM | 1100 nM | –
Cc1oc2ccccc2c1Cc1cc(I)c(OCC(=O)O)c(I)c1 | 4100 nM | 2200 nM | – | – | –
CCCCCOc1c(Br)cc(CC(=O)O)cc1Br | – | – | 5700 nM | 20000 nM | –
O=C(O)Cc1cc(Br)c(OCC2CCCCC2)c(Br)c1 | 520 nM | 420 nM | 770 nM | 2700 nM | –
CCC(CC)COc1c(Br)cc(CC(=O)O)cc1Br | 700 nM | 820 nM | 800 nM | 6900 nM | –
CCCCOc1c(Br)cc(CC(=O)O)cc1Br | – | – | 1900 nM | 26000 nM | –

The remaining lines, values ahead:

IC50 [1] | IC50 [2] | IC50 [3] | IC50 [4] | Ki [5] | SMILES
800 nM | 700 nM | 1500 nM | 5200 nM | – | CCCCCCOc1c(Br)cc(CC(=O)O)cc1Br
– | – | 32000 nM | 160000 nM | – | CCOc1c(Br)cc(CC(=O)O)cc1Br
– | – | 18000 nM | 13000 nM | – | CC(C)CCOc1c(Br)cc(CC(=O)O)cc1Br
> 10000 nM | > 10000 nM | 600 nM | 650 nM | – | CCCCc1oc2ccccc2c1C(=O)c1cc(I)c(CCN(CC)CC)c(I)c1
4500 nM | 1100 nM | – | – | 1380 nM | CC(C)c1cc(Oc2c(Br)cc(C(=O)O)cc2Br)cc(C(C)C)c1O
– | – | 1800 nM | 4400 nM | – | CC(C)CCOc1c(Br)cc(CCC(=O)O)cc1Br
